Laboratory results from patent US10961242B2, “Compounds as autotaxin inhibitors and pharmaceutical compositions comprising the same” (LegoChem Biosciences, Inc., priority 2018, dated 2021).
Where two headings read alike, the source gives them in different places.

How the values were obtained:
human ENPP2 = human ENPP2 (Homo sapiens (Human), UniProt Q13822); experiment: Inhibitory activity on human ENPP2 (FS-3 assay); type: biochemical
Description: Two-fold dilution of each test compound solution (10 μM, 100% dimethyl sulfoxide) is carried out on 96-well V bottom plate (Costar 3363). After ten-fold dilution of each the test compound solution (100% dimethyl sulfoxide) with deionized distilled water, 10 μL of the diluted each mpound solution (10% dimethyl sulfoxide) was aliquoted to a black flat bottom 96-well plate (Costar 3915).

human ATX = human ATX (Homo sapiens (Human), UniProt Q13822); experiment: Bis-pNPP assay; type: biochemical; settings: bis-pNPP substrate, read-out: Enzymatic assay (IC50) bis-pNPP
Description: Eight-fold dilution of each test compound solution (10 μM, 100% dimethyl sulfoxide) is carried out on 96-well V bottom plate (Costar 3363). After […] of each test compound solution (100% dimethyl sulfoxide) with deionized distilled water, 10 μL of the diluted each test compound solution (10% dimethyl sulfoxide) was aliquoted to a black flat bottom 96-well plate (Costar 3915). 50 μL of 60 mM Tris-HCl (pH9.0) buffer was added thereto, and subsequently 20 μL of 3.75 nM human ATX solution (buffer solution: 50 mM Tris-HCl (pH8.5), 5 mM CaCl2, 2.5 mM MgCl2, 0.01% Brij35) and 20 μL of 25 mM Bis-pNPP (bis(p-Nitrophenyl)-phosphate sodium salt) solution (buffer solution: 50 mM Tris-HCl (pH9.0)) were added thereto, respectively, followed by mixing. […] Furthermore, IC50 values that are shown in Table 3 were calculated using Grafit5 Software based on the inhibitory activity percentage ratio.

[1] = Microsomal stability, human liver microsomes; type: in vitro ADME; settings: both sexes, pH 7.4; human liver microsomes (h), 0.5 mg/mL, NADPH regenerating system; read-out: MS (microsomal stability) t1/2
Description: (§1) A 2.5 mM stock solution of test compound in DMSO is diluted to 25 uM with 100 mM potassium phosphate buffer (pH 7.4) containing 5 mM EDTA. This solution was mixed with reaction mixtures (final concentration 1 μM). The incubation mixtures (final volume 700 μL) of test compound with liver microsomes [Xenotech; rat (male SD), human (mixed gender)] consisted of liver microsomes (0.5 mg/mL), substrate (Compound 4, […]), NADPH regenerating system (1.3 mM NADP+, 3.3 mM Glucose-6-phosphate, 3.3 mM MgCl2, 0.4 U/ml Glucose-6-phosphate dehydrogenase) in 81.3 mM potassium phosphate buffer (pH 7.4) containing 1 mM EDTA in duplicates. The reaction was initiated by addition of the NADPH regenerating system after preincubation at 37° C. for 10 min with test compounds. 100 uL of aliquot of the sample was removed at 0, 5, 10, 20, 30 and 60 min. The reaction was stopped by addition of 200 uL of acetonitrile containing internal standard (0.3 uM of Dextromethorphan). Each sample was mixed and centrifuged at 14000 rpm for 10 min. The resulting supernatant was analyzed by the LC-MS/MS method for determination of loss of parent compound. % parent remaining was calculated at 6 point time testing was done for T½ determination.

[2] = Microsomal stability, rat liver microsomes; type: in vitro ADME; settings: male, SD, pH 7.4; rat liver microsomes (r), 0.5 mg/mL, NADPH regenerating system; read-out: MS (microsomal stability) t1/2
Description: as §1

[3] = test system: LPA production in blood serum caused by autotoxin; experiment: Inhibitory activity on LPA production in mouse blood serum; type: biochemical; settings: mouse blood serum (m), 18:1 LPC, 3 hours at 37° C.
Description: (§2) After 100-fold dilution of each test compound solution (5 μL) (10 mM, 100%, dimethyl sulfoxide) with 495 μL of methanol, 3 μL of the diluted methanol solution (1% dimethyl sulfoxide) was mixed with 57 μL of human or mouse blood serum solution in a 1.5 mL tube. […] Subsequently, a solution prepared by diluting 10 mg/mL 18:1 LPC solution (50% ethanol) with blood serum to have concentration of 375 μg/mL was aliquoted in an amount of 2 μL to each tube so as to have 50 μL. Each tube was kept for 3 hours in a water bath at 37° C. to allow a reaction. To the tube obtained after the reaction, 100 μL of 0.5 μM 17:0 LPA solution (chloroform/methanol/water=65/35/8) was aliquoted and mixed therein. Centrifuge was carried out for 10 minutes using a centrifuge at conditions of 14,000 rpm and 4° C. 100 μL of 50% methanol solution is aliquoted first to a 96-well polypropylene plate (Agilent Technology 5042-1385), and the supernatant (50 μL) in a tube after the centrifuge was carefully transferred to the plate followed by mixing. After covering it with Well cap (Thermo 276011), analysis was carried out by LC-MS/MS (Agilent 1260).
(§3) In the following Table 3, the mouse blood serum was described as (m) and human blood serum was described as (h).

[4] = test system: LPA production in blood serum caused by autotoxin; experiment: Inhibitory activity on LPA production in human blood serum; type: biochemical; settings: human blood serum (h), 18:1 LPC, 3 hours at 37° C.
Description: as §2, §3

[5] = test system: LPA production in mouse plasma; experiment: Ex-vivo assay (LPC assay) in mouse plasma; type: biochemical; settings: LPA 18:1
Description: After 100-fold dilution of each test compound solution (5 μL) (10 mM, 100%, dimethyl sulfoxide) with 495 μL of methanol, 3 μL of the diluted methanol solution (1% dimethyl sulfoxide) was mixed with 57 μL of human or mouse blood serum solution in a 1.5 mL tube. The mixed test compound solution was serially diluted, 12 μL for each, with 48 μL of 100% blood serum to have 5 different concentrations, and each tube was kept for 15 minutes in a water bath with constant temperature of 37° C. Subsequently, a solution prepared by diluting 10 mg/mL 18:1 LPC solution (50% ethanol) with blood serum to have concentration of 375 μg/mL was aliquoted in an amount of 2 μL to each tube so as to have 50 μL. Each tube was kept for 3 hours in a water bath at 37° C. to allow a reaction. To the tube obtained after the reaction, 100 μL of 0.5 μM 17:0 LPA solution (chloroform/methanol/water=65/35/8) was aliquoted and mixed therein. Centrifuge was carried out for 10 minutes using a centrifuge at conditions of 14,000 rpm and 4° C. 100 μL of 50% methanol solution is aliquoted first to a 96-well polypropylene plate (Agilent Technology 5042-1385), and the supernatant (50 μL) in a tube after the centrifuge was carefully transferred to the plate followed by mixing. After covering it with Well cap (Thermo 276011), analysis was carried out by LC-MS/MS (Agilent 1260).
The test was carried out in the same process as Test example 2 to obtain the IC50 values in the following table 4.

[6] = FS-3 assay, same process as Test example 1, read-out: Enzymatic assay (IC50) FS-3

Row | Structure (SMILES) | IC50 (human ENPP2; [6]) [nM] | IC50 (human ATX) [nM] | half-life at 1 µM [1] [min] | half-life at 1 µM [2] [min] | IC50 (human ENPP2; human ENPP2, FS-3 substrate, 30 min at 37° C., read-out: IC50) [nM] | IC50 [3] [nM] | IC50 [4] [nM] | IC50 [5] [nM]
1 | O=C(Cn1cc(-c2cnc(NC3Cc4ccccc4C3)nc2)c(NC2CCC2)n1)N1CCc2[nH]nnc2C1 [Compound 100, 2-[3-(cyclobutylamino)-4-{2-[(2,3-dihydro-1H-inden-2-yl)amino]pyrimidin-5-yl}-1H-pyrazol-1-yl]-1-{1H,4H,5H,6H,7H-[1,2,3]triazolo[4,5-c]pyridin-5-yl}ethan-1-one] | 1.74 | 3.6 | 16.4 | 10.3 ± 0.72 | – | – | – | –
2 | O=C(Cc1nnc(-c2cnc(NC3CC=C(c4cccc(Cl)c4)CC3)nc2)o1)N1CCc2[nH]nnc2C1 (centres unmarked) [Compound 35, 2-[5-(2-{[4-(3-chlorophenyl)cyclohex-3-en-1-yl]amino}pyrimidin-5-yl)-1,3,4-oxadiazol-2-yl]-1-{1H,4H,5H,6H,7H-[1,2,3]triazolo[4,5-c]pyridin-5-yl}ethan-1-one] | – | – | – | – | 2.4 | 46 | 99 | –
3 | O=C(Cn1cc(-c2cnc(NC3Cc4ccccc4C3)nc2)c(C2CCNCC2)n1)N1CCc2[nH]nnc2C1 [Compound 98, 2-(4-{2-[(2,3-dihydro-1H-inden-2-yl)amino]pyrimidin-5-yl}-3-(piperidin-4-yl)-1H-pyrazol-1-yl)-1-{1H,4H,5H,6H,7H-[1,2,3]triazolo[4,5-c]pyridin-5-yl}ethan-1-one] | 9.39 | < 1.56 | > 60 | > 60 | – | – | – | –
4 | O=C(Cn1cc(-c2cnc(NC3Cc4ccccc4C3)nc2)c(-c2ccncc2)n1)N1CCc2[nH]nnc2C1 [Compound 96, 2-(4-{2-[(2,3-dihydro-1H-inden-2-yl)amino]pyrimidin-5-yl}-3-(pyridin-4-yl)-1H-pyrazol-1-yl)-1-{1H,4H,5H,6H,7H-[1,2,3]triazolo[4,5-c]pyridin-5-yl}ethan-1-one] | 2.02 | < 1.56 | 22.2 | 30 ± 1.57 | – | – | – | 3.65
5 | CCN(CC)c1nn(CC(=O)N2CCc3[nH]nnc3C2)cc1-c1cnc(NC2Cc3ccccc3C2)nc1 [Compound 106, 2-[3-(diethylamino)-4-{2-[(2,3-dihydro-1H-inden-2-yl)amino]pyrimidin-5-yl}-1H-pyrazol-1-yl]-1-{1H,4H,5H,6H,7H-[1,2,3]triazolo[4,5-c]pyridin-5-yl}ethan-1-one] | 2.57 | 2.27 | 4.2 | 3.9 ± 0.03 | – | – | – | –
6 | O=C(Cn1cc(-c2cnc(NC3Cc4ccccc4C3)nc2)c(-c2ccccn2)n1)N1CCc2[nH]nnc2C1 [Compound 116, 2-(4-{2-[(2,3-dihydro-1H-inden-2-yl)amino]pyrimidin-5-yl}-3-(pyridin-2-yl)-1H-pyrazol-1-yl)-1-{1H,4H,5H,6H,7H-[1,2,3]triazolo[4,5-c]pyridin-5-yl}ethan-1-one] | < 1.56 | < 1.56 | 33 | 25.2 ± 0.69 | – | – | – | 7.1
7 | O=C(CO)N1CCN(C(=O)Cn2cc(-c3cnc(NC4Cc5ccccc5C4)nc3)c(-c3ccncc3)n2)CC1 [Compound 115, 1-{4-[2-(4-{2-[(2,3-dihydro-1H-inden-2-yl)amino]pyrimidin-5-yl}-3-(pyridin-4-yl)-1H-pyrazol-1-yl)acetyl]piperazin-1-yl}-2-hydroxyethan-1-one] | 3.04 | 66.8 | > 60 | > 60 | – | – | – | 125
8 | O=C(CO)N1CCC(c2nn(CC(=O)N3CCc4[nH]nnc4C3)cc2-c2cnc(NC3Cc4ccccc4C3)nc2)CC1 [Compound 118, 1-[4-(4-{2-[(2,3-dihydro-1H-inden-2-yl)amino]pyrimidin-5-yl}-1-(2-oxo-2-{1H,4H,5H,6H,7H-[1,2,3]triazolo[4,5-c]pyridin-5-yl}ethyl)-1H-pyrazol-3-yl)piperidin-1-yl]-2-hydroxyethan-1-one] | < 1.56 | 5.3 | – | – | – | – | – | –
